Active and inactive are the calls of the source. The calls are words filed in the database; no cut-off is given here.
Assays:
Assay type in all cases: functional, cell-based
[1] = system: L6; assay: Induction of glucose uptake in rat L6 myoblasts at 50 uM after 24 hrs
[2] = system: HEI-OC1; assay: Protective activity against […] HEI-OC1 cells assessed as cell viability at 10 uM after 48 hrs by CCK8 assay
[3] = system: L6; assay: Induction of glucose uptake in rat L6 myotubes after 24 to 48 hrs; settings: dose 2.5-80 µM, time 24-48 hrs
[4] = system: L6; assay: Induction of glucose uptake in rat L6 myoblasts after 24 hrs; settings: dose 0.3125-80 µM

SMILES | Activity [1] | Activity [2] | Activity [3] | Activity [4]
CCCCCCC(C)[C@@H]1CC(=O)N[C@@H](Cc2ccc(O)cc2)C(=O)N[C@@H](Cc2ccc(O)cc2)C(=O)N[C@H]([C@@H](C)CC)C(=O)O1 (some centres undefined) | Active | – | – | –
CCCCCC[C@H](C)[C@@H]1CC(=O)N[C@@H](Cc2c[nH]c3ccccc23)C(=O)N[C@@H](Cc2ccccc2)C(=O)N[C@H](CC(C)C)C(=O)O1 | – | Active | – | –
CCCCCC[C@H](C)[C@@H]1CC(=O)N[C@@H](Cc2c[nH]c3ccccc23)C(=O)N[C@@H](Cc2ccc(O)cc2)C(=O)N[C@H](CC(C)C)C(=O)O1 | Active | – | – | –
CCCCCC[C@H](C)[C@@H]1CC(=O)N[C@@H](Cc2ccc(O)cc2)C(=O)N[C@@H](Cc2ccccc2)C(=O)N[C@H]([C@@H](C)CC)C(=O)O1 | – | Active | – | –
CCCCCC[C@H](C)[C@@H]1CC(=O)N[C@@H](Cc2c[nH]c3ccccc23)C(=O)N[C@@H](Cc2ccc(O)cc2)C(=O)N[C@H]([C@@H](C)CC)C(=O)O1 | Active | – | – | –
CCCCCC[C@H](C)[C@@H]1CC(=O)N[C@@H](Cc2c[nH]c3ccccc23)C(=O)N[C@@H](Cc2ccccc2)C(=O)N[C@H]([C@@H](C)CC)C(=O)O1 | Active | Active | Dose-Dependent Effect | Dose-Dependent Effect

Source: ChEMBL document CHEMBL4819059, “3-Hydroxy-4-methyldecanoic Acid-Containing Cyclotetradepsipeptides from an Endolichenic Beauveria sp” (J Nat Prod, 2021)
